Source: patent publication US11008332B2, “Pharmaceutical composition for preventing or treating aging-related diseases containing decursin derivative as active ingredient” (PRG S&TECH INC., priority 2017, dated 2021)
“And” between values parts separate entries of the source, which are not always exact repeats. Equal entries are not always repeated.

Tests used:
[1] = Chemical pharmacokinetic (PK) analysis, blood/plasma concentration by LC-MS/MS; type: in vivo; conditions: for Plasma concentration, Mean: n = 3
Method: For PK analysis, 5 mg/kg of JH4 in 10% DMSO, 5% Tween […] solution was intravenously injected and 10 mg/kg of JH4 in 10% NMP and 90% PEG400 solution was per orally delivered. At the setting time-points, blood concentration of JH4 was determined by LC-MS/MS analysis and the PK analysis for other chemicals was also tested by the similar protocol.

hERG ion channel = hERG ion channel (Homo sapiens, UniProt Q12809); experiment: hERG inhibition (in vitro ADME); conditions: in vitro ADME analysis, FIG. 2B
hERG ion channel, sequence (Q12809 whole entry): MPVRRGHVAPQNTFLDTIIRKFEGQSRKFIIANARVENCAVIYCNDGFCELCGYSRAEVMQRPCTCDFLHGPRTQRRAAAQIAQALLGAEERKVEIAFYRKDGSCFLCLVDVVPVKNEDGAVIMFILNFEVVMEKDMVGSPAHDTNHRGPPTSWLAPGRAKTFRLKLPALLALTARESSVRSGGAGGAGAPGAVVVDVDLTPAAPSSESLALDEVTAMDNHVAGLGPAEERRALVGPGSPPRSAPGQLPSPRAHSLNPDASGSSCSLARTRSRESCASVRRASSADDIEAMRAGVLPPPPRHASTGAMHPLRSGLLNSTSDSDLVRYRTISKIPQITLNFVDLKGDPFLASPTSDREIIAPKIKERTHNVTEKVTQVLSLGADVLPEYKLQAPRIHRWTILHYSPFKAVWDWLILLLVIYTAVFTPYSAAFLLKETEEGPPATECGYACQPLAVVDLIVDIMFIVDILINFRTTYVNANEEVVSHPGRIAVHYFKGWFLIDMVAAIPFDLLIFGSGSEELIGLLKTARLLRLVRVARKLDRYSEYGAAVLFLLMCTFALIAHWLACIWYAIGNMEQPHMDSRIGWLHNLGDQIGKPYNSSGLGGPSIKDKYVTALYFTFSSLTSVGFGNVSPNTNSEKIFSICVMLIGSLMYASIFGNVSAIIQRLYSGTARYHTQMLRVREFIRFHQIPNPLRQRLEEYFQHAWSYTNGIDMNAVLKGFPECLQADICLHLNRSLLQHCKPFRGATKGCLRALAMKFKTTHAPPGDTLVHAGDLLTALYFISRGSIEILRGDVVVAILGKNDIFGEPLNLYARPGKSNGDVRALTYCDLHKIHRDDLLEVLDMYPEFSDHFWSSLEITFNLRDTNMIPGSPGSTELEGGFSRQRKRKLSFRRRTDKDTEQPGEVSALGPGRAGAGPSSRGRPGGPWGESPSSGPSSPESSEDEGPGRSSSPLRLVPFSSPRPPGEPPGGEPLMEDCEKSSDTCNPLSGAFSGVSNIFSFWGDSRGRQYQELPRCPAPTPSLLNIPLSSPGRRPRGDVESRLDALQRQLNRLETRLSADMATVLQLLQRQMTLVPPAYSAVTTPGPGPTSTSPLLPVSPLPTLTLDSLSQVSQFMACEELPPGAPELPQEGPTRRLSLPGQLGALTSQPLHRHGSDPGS

[2] = test system: progerin expression in progerin-transfected 293 cells; experiment: Progerin expression analysis in progerin-transfected 293 cells (Western blot); type: cell-based; conditions: 24 hours, FIG. 1D
Method: HEK293 cell line, obtained from ATCC, were maintained in liquid medium (DMEM) containing 10% FBS and 1% antibiotics at 37° C.
Whole-cell lysates were prepared in RIPA.
15 μg of cell extracts were separated by SDS-PAGE and transferred onto a PVDF membrane.
The membrane was incubated for 1 h to overnight at 4° C. with primary antibody, followed by reaction with a secondary antibody at room temperature for 1 h.
Peroxidase activity was detected by chemiluminescence with ECL kit (Intron, Seoul, Korea) as recommended by its manufacturer.

HGPS cells [3] = experiment: Immunofluorescence staining of HGPS cells (nuclear morphology, progerin, H3K9me3); type: cell-based, Human
Method: Human fibroblast cells from HGPS patients (AG03198, person; AG03199; person), WS patients (AG06300, person; AG03141, person; AG00780, person) and controls (GM 00038, person) were obtained from the Coriell Cell Repositories (Camden, N.J., USA) and were maintained in EMEM, containing 15% FBS, 2 mM glutamine or HEMEM with 26 mM HEPES without antibiotics.
Cells were seeded on a cover glass and transfected with the indicated vectors.
After fixing with 100% methanol or 1% paraformaldehyde (PFA) for 1 h at 4° C., cells were incubated with blocking buffer (PBS+anti-human-Ab; 1:400) for 1 h.
After washing with PBS twice, cells were incubated with anti-Lamin A/C, Progerin or H3K9Me3 in blocking buffer (1:200) overnight and sequentially with anti-goat Ab-FITC or anti-rabbit Ab-rhodamin in blocking buffer (1:500) for 7 h and mounted, and nucleus was stained with DAPI. Thereafter Immunofluorescence signal was detected by fluorescence microscopy (Zeiss and Logos).
For counting nuclear deformed cell, obtained immunofluorescence images were used. Nuclear membrane showing abnormalities, dependent on Lamin A staining, were counted from randomly selected field. Counted cells were calculated percentage.

Lmna^wt/G609G mice = experiment: Life span and morphology of Lmna^wt/G609G mice; type: in vivo, mouse
Water solubility = type: physicochemical
HGPS cells [4] = conditions: previous report; cited from earlier work
[5] = test system: Lmna^G609G/G609G, progeria model mouse; conditions: intraperitoneal injection (i.p.), previous report; cited from earlier work
Plasma protein = Plasma protein binding, human; type: in vitro ADME
Method: In vitro ADME studies (plasma protein binding, CYP inhibition, microsomal stability, plasma stability and hERG inhibition) were performed by New drug development center though standard protocols.

progerin = target: T1, progerin (Homo sapiens, UniProt P02545); experiment: GST pull-down of bead-conjugated GST WRN-R1/WRN-R2 with GFP-progerin transfected 293 cell lysates; type: binding; conditions: compared with WRN-R1, FIG. 4B
T1 construct: expressed in transfected cells; host or cells: HEK293
T1 sequence (P02545 1-614 isoform P02545-6): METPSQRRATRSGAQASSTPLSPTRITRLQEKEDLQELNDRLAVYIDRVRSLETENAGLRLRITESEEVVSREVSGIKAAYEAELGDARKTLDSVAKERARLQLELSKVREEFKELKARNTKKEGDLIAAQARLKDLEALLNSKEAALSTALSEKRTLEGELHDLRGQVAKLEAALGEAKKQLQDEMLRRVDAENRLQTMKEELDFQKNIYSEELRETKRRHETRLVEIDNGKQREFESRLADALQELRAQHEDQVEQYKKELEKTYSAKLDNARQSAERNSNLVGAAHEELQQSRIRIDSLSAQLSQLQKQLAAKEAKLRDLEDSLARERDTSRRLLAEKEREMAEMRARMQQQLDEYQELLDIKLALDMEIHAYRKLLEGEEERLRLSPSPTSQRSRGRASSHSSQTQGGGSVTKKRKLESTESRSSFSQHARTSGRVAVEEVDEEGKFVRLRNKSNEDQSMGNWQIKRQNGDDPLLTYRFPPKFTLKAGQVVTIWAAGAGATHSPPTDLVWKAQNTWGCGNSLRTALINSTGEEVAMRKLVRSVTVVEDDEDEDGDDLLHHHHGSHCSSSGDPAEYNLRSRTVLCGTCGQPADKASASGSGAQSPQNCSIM
Method: For the analysis of protein-protein interaction, Glutathione S-transferase (GST) pull-down assay was performed.
To detect the interaction, GST-bead-fused Lamin A-C-terminal region, Progerin-C-terminal region, WRN-R1 region or WRN-R2 region was incubated with GFP tagged Progerin (GFP-Progerin) and Lamin A (GFP-Lamin A) transfected HEK293 cell lysate for 30 min at RT.
After washing once with PBS, precipitated materials were collected and subjected into SDS-PAGE and western blot with anti-GFP and GST.

[6] = target: T2, progerin and Lamin A binding (Homo sapiens, UniProt P02545); experiment: Competition assay of WRN-R1 and R2 against progerin and Lamin A binding; conditions: bead conjugated GST-progerin with GFP-Lamin A transfected 293 lysate, FIG. 4C
T2 construct: produced by cloning of 100 AA from upstream of the termination codon through PCR; made in house; GFP-Lamin A from transfected 293 cells
T2 sequence (P02545 1-614 isoform P02545-6): T1 sequence (P02545 1-614 isoform P02545-6)
Method: For the competition assay of WRN-R1 and R2 against progerin and Lamin A binding, bead-conjugated GST-progerin was incubated with GFP-Lamin A overexpressed 293 lysate with or without WRN-R1 or R2 recombinant protein.

[7] = intravenous injection 5 mg/kg, 1 hr
[8] = intravenous injection 5 mg/kg, 2 hr
[9] = intravenous injection 5 mg/kg, 8 hr
[10] = intravenous injection 5 mg/kg, 24 hr
[11] = oral administration 10 mg/kg, 0.08 hr
[12] = oral administration 10 mg/kg, 0.25 hr
[13] = oral administration 10 mg/kg, 0.5 hr
[14] = oral administration 10 mg/kg, 1 hr
[15] = oral administration 10 mg/kg, 2 hr
[16] = oral administration 10 mg/kg, 4 hr
[17] = oral administration 10 mg/kg, 8 hr
[18] = oral administration 10 mg/kg, 24 hr
[19] = Lmna^wt/G609G mice, injection started from 43 weeks old, FIG. 2E
[20] = recombinant peptide delivered into HGPS cells with protein delivery agent, 24 hr, FIG. 4D

Compound: CC1(C)Oc2cc3oc(=O)ccc3cc2CC1OC(=O)N/C=C/c1cccnc1 (stereo not shown) [JH010]
- bioavailability (B.A.) ([1]; PK analysis, FIG. 2A): 70%
- PK profile ([1]; in vivo PK analysis, FIG. 2A): proper PK profile
- hERG ion channel inhibition (hERG ion channel): hERG ion channel inhibition of the JH010 compound was confirmed
- progerin expression [2]: inhibiting progerin expression
- nuclear abnormality of HGPS cells (HGPS cells [3]; HGPS cells incubated 48 hr, FIG. 1E): improved nuclear abnormality of HGPS cells
- H3K9me3 expression in HGPS cells (HGPS cells [3]; immunostaining, FIG. 1F): induced H3K9me3 expression

Compound: CC1(C)Oc2cc3oc(=O)ccc3cc2C[C@@H]1OC(=O)/C=C/c1cccnc1 [JH4]
- disappearance after PO treatment ([1]; PO treatment, FIG. 1A): very rapidly disappeared by PO treatment
- Plasma concentration, Mean ([1]; intravenous injection 5 mg/kg, 0.08 hr): 4.7 ng/mL
- Plasma concentration, individual subjects ([1]; intravenous injection 5 mg/kg, 0.08 hr, 5 mg/kg): 3.3 ng/mL and 4.6 ng/mL and 6.3 ng/mL
- Plasma concentration, Mean ([1]; intravenous injection 5 mg/kg, 0.25 hr): 1.5 ng/mL
- Plasma concentration, individual subjects ([1]; intravenous injection 5 mg/kg, 0.25 hr, 5 mg/kg): 1.7 ng/mL and 1.1 ng/mL and 1.8 ng/mL
- Plasma concentration, Mean ([1]; intravenous injection 5 mg/kg, 0.5 hr): 0.6 ng/mL
- Plasma concentration, individual subjects ([1]; intravenous injection 5 mg/kg, 0.5 hr, 5 mg/kg): 0.5 ng/ml (2×) and 0.7 ng/ml
- Plasma concentration, individual subjects [1, 7]: BQL (Below Quantifiable Limit (<1 ng/ml))
- Plasma concentration, Mean [1, 7]: BQL (Below Quantifiable Limit (<1 ng/ml))
- Plasma concentration, individual subjects [1, 8]: BQL (Below Quantifiable Limit (<1 ng/ml))
- Plasma concentration, Mean [1, 8]: BQL (Below Quantifiable Limit (<1 ng/ml))
- Plasma concentration, Mean ([1]; intravenous injection 5 mg/kg, 4 hr): BQL (Below Quantifiable Limit (<1 ng/ml))
- Plasma concentration, individual subjects ([1]; intravenous injection 5 mg/kg, 4 hr, 5 mg/kg): BQL (Below Quantifiable Limit (<1 ng/ml)) (2×) and BOL
- Plasma concentration, individual subjects [1, 9]: BQL (Below Quantifiable Limit (<1 ng/ml))
- Plasma concentration, Mean [1, 9]: BQL (Below Quantifiable Limit (<1 ng/ml))
- Plasma concentration, individual subjects [1, 10]: BQL (Below Quantifiable Limit (<1 ng/ml))
- Plasma concentration, Mean [1, 10]: BQL (Below Quantifiable Limit (<1 ng/ml))
- half-life in vivo ([1]; intravenously injected and orally administrated): very short half-life
- Plasma concentration, individual subjects [1, 11]: BQL (Below Quantifiable Limit (<1 ng/ml))
- Plasma concentration, Mean [1, 11]: BQL (Below Quantifiable Limit (<1 ng/ml))
- Plasma concentration, individual subjects [1, 12]: BQL (Below Quantifiable Limit (<1 ng/ml))
- Plasma concentration, Mean [1, 12]: BQL (Below Quantifiable Limit (<1 ng/ml))
- Plasma concentration, individual subjects [1, 13]: BQL (Below Quantifiable Limit (<1 ng/ml))
- Plasma concentration, Mean [1, 13]: BQL (Below Quantifiable Limit (<1 ng/ml))
- Plasma concentration, individual subjects [1, 14]: BQL (Below Quantifiable Limit (<1 ng/ml))
- Plasma concentration, Mean [1, 14]: BQL (Below Quantifiable Limit (<1 ng/ml))
- Plasma concentration, individual subjects [1, 15]: BQL (Below Quantifiable Limit (<1 ng/ml))
- Plasma concentration, Mean [1, 15]: BQL (Below Quantifiable Limit (<1 ng/ml))
- Plasma concentration, individual subjects [1, 16]: BQL (Below Quantifiable Limit (<1 ng/ml))
- Plasma concentration, Mean [1, 16]: BQL (Below Quantifiable Limit (<1 ng/ml))
- Plasma concentration, individual subjects [1, 17]: BQL (Below Quantifiable Limit (<1 ng/ml))
- Plasma concentration, Mean [1, 17]: BQL (Below Quantifiable Limit (<1 ng/ml))
- Plasma concentration, individual subjects [1, 18]: BQL (Below Quantifiable Limit (<1 ng/ml))
- Plasma concentration, Mean [1, 18]: BQL (Below Quantifiable Limit (<1 ng/ml))
- prolongation of life (Lmna^wt/G609G mice; Lamn^wt/G609G model): about 10 weeks
- average life span (Lmna^wt/G609G mice; [19]): 54 weeks
- maximum (max) life span (Lmna^wt/G609G mice; [19]): 56 weeks
- water solubility (Water solubility): very low water solubility
- aging-related markers in HGPS cells (HGPS cells [4]): restored aging-related markers such as p16/INK4A, DNA-PK and H3K9me3 expression
- nuclear deformation of HGPS cells (HGPS cells [4]): improved the nuclear deformation of HGPS cells
- prolongation of progerin model mouse lifespan [5]: about 4 weeks

Compound: C[C@@H]1C[C@H]2[C@@H]3CCC4=CC(=O)C=C[C@]4(C)[C@@]3(F)[C@@H](O)C[C@]2(C)[C@@]1(O)C(=O)CO [Dexamethasone]
- Plasma protein binding Human (% Bound) (Plasma protein): 62.1 % Bound

Compound: WRN-R2: recombinant WRN-R2 region (hWRN 424-476), duplicated peptide HLSPNDNENDTSYVIESDEDELEMEMLK x2
- H3K9me3 expression in HGPS cells (HGPS cells [3]; [20]): H3K9me3 expression was improved
- nuclear morphology of HGPS cells (HGPS cells [3]; [20]): nuclear morphology was normalized
- binding to progerin (progerin): strongly binds to progerin
- blocking of interaction of progerin and Lamin A [6]: blocks the interaction of progerin and Lamin A
